Source: ChEMBL document CHEMBL1201862, “PubChem BioAssay data set” (2004)
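Protocol summary: plate cells (96-well), add compound at 5 concentrations, incubate 48 h, interpolate endpoints linearly. GI50 = concentration required for 50% inhibition of growth.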 Activity calls are given as the source filed them. Rule as the data show it: active = GI50 up to about 1.1 µM and inactive = higher.

What was measured:
Assay in all cases: DTP human tumour cell line panel, 48 h
[1] = test system: 786-0
[2] = test system: A549
[3] = test system: ACHN
[4] = test system: BT-549
[5] = test system: CAKI-1
[6] = test system: CCRF-CEM
[7] = test system: COLO 205
[8] = test system: DU-145
[9] = test system: EKVX
[10] = test system: HCC 2998
[11] = test system: HCT-116
[12] = test system: HCT-15
[13] = test system: HL-60
[14] = test system: HOP-62
[15] = test system: HOP-92
[16] = test system: HT-29
[17] = test system: Hs-578T
[18] = test system: IGROV-1
[19] = test system: K562
[20] = test system: KM12
[21] = test system: LOX IMVI
[22] = test system: M14
[23] = test system: MCF7
[24] = test system: MDA-MB-231
[25] = test system: MDA-MB-435
[26] = test system: MDA-N
[27] = test system: MOLT-4
[28] = test system: Malme-3M
[29] = test system: NCI-H226
[30] = test system: NCI-H23
[31] = test system: NCI-H522
[32] = test system: NCI/ADR-RES
[33] = test system: OVCAR-3
[34] = test system: OVCAR-4
[35] = test system: OVCAR-5
[36] = test system: OVCAR-8
[37] = test system: PC-3
[38] = test system: RPMI-8226
[39] = test system: RXF 393
[40] = test system: SF-268
[41] = test system: SF-295
[42] = test system: SF-539
[43] = test system: SK-MEL-28
[44] = test system: SK-MEL-2
[45] = test system: SK-MEL-5
[46] = test system: SK-OV-3
[47] = test system: SN12C
[48] = test system: SNB-19
[49] = test system: SNB-75
[50] = test system: SR
[51] = test system: SW-620
[52] = test system: T47D
[53] = test system: TK-10
[54] = test system: U-251
[55] = test system: UACC-257
[56] = test system: UACC-62
[57] = test system: UO-31
[58] = test system: NCI-H460

Measured: GI50

Cc1ccc(/C=N/Nc2ccc3ccccc3n2)s1
12 µM: [12]
inactive: [1] 18.8 µM | [2] 14.3 µM | [3] 17.3 µM | [4] 18.2 µM | [5] > 100 µM | [6] > 100 µM | [7] 12.9 µM | [8] > 10 µM | [9] 4.73 µM | [10] 15.3 µM | [11] 7.78 µM | [13] 41.5 µM | [14] 20.8 µM | [15] 19.1 µM | [16] 7.46 µM | [17] 25.2 µM | [18] 16.3 µM | [19] 16.9 µM | [20] 32.3 µM | [21] 17.1 µM | [22] 16.9 µM | [23] 17.5 µM | [24] 15.5 µM | [25] 15.8 µM | [26] 13.4 µM | [27] 9.55 µM | [28] 14.9 µM | [29] 80.7 µM | [30] 18.6 µM | [31] 15.7 µM | [32] 35.5 µM | [33] 5.58 µM | [34] 20.7 µM | [35] 27.3 µM | [36] 26.7 µM | [37] 13.2 µM | [38] 14.2 µM | [39] 37.7 µM | [40] 60.1 µM | [41] 16.4 µM | [42] 83.4 µM | [43] 17.2 µM | [44] > 100 µM | [45] 9.4 µM | [46] 30.2 µM | [47] 13 µM | [48] 21.3 µM | [49] > 100 µM | [50] 22.2 µM | [51] 23.2 µM | [52] 8.28 µM | [53] 22.1 µM | [54] 21.1 µM | [55] 6.01 µM | [56] 34.8 µM | [57] > 100 µM

N#CC(NCCc1ccccc1)c1ccccc1 (stereo not given)
> 100 µM: [12]
inactive: [1] > 100 µM | [2] > 100 µM | [3] > 100 µM | [4] > 100 µM | [5] > 100 µM | [6] > 100 µM | [7] > 100 µM | [8] > 100 µM | [9] > 100 µM | [10] > 100 µM | [11] > 100 µM | [13] > 100 µM | [14] > 100 µM | [15] > 100 µM | [16] > 100 µM | [17] > 100 µM | [18] > 100 µM | [19] > 10 µM | [20] > 100 µM | [21] > 100 µM | [22] > 100 µM | [23] > 100 µM | [24] > 100 µM | [25] > 100 µM | [26] > 100 µM | [27] > 100 µM | [28] > 100 µM | [29] > 100 µM | [30] > 100 µM | [58] > 100 µM | [31] > 100 µM | [32] > 100 µM | [33] > 100 µM | [34] > 100 µM | [35] > 100 µM | [36] > 100 µM | [37] > 100 µM | [38] > 100 µM | [39] > 100 µM | [40] > 100 µM | [41] > 100 µM | [42] > 100 µM | [43] > 100 µM | [44] > 100 µM | [45] > 100 µM | [46] > 100 µM | [47] > 100 µM | [48] > 100 µM | [49] > 100 µM | [50] > 100 µM | [51] > 100 µM | [52] > 100 µM | [53] > 100 µM | [54] > 100 µM | [55] > 100 µM | [56] > 100 µM | [57] > 100 µM
